Assay results reported in ChEMBL document CHEMBL1139051, “Human ACAT inhibitory effects of shikonin derivatives from Lithospermum erythrorhizon” (Bioorg Med Chem Lett, 2007).

What was measured:
[1] = biological target: T1, Sterol O-acyltransferase 2 (Homo sapiens, UniProt O75908); assay: Inhibition of human ACAT2 expressed in Hi5 cells; set-up: species or system BTI-TN-5B1-4
T1 sequence (O75908 whole entry): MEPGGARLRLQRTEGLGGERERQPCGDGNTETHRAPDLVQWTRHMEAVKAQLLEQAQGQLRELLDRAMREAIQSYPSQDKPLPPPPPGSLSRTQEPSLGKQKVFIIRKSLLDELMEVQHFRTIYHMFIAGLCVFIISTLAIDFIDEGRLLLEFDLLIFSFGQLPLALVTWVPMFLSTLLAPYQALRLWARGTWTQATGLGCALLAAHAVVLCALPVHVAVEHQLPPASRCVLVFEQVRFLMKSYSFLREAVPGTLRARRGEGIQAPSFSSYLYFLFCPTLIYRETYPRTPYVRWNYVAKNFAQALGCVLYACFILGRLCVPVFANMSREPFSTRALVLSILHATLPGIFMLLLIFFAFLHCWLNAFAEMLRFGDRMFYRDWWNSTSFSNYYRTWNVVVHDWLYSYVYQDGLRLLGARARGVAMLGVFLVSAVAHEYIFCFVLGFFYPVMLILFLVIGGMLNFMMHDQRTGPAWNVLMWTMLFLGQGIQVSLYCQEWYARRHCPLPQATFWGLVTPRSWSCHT

[2] = biological target: T2, Sterol O-acyltransferase 1 (Homo sapiens, UniProt P35610); assay: Inhibition of human ACAT1 expressed in Hi5 cells; set-up: species or system BTI-TN-5B1-4
T2 sequence (P35610 whole entry): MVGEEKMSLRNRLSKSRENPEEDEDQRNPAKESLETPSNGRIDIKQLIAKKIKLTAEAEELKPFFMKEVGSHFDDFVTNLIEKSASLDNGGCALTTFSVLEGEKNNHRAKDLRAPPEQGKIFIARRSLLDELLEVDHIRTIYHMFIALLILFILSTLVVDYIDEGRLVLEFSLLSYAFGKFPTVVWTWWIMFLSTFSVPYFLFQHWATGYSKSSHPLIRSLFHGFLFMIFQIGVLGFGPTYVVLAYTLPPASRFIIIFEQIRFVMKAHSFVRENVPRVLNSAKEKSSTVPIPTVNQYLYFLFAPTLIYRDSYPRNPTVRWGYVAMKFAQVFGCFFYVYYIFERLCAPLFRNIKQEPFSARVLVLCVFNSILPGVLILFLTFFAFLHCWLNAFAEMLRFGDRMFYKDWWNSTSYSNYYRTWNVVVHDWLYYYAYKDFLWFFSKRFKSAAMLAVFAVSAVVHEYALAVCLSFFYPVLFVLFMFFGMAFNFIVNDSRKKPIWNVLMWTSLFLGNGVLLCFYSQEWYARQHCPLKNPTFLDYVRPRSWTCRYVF

[3] = biological target: T2, Sterol O-acyltransferase 1; assay: Inhibition of human ACAT1 expressed in AC29 cells by cell-based fluorescent assay system
[4] = biological target: T3, Sterol O-acyltransferase 1 (Homo sapiens) (UniProt P35610); assay: Inhibition of human ACAT1 expressed in Hi5 cells at 120 uM; conditions: BTI-TN-5B1-4
T3 sequence (whole entry): T2 sequence (P35610 whole entry)

SMILES | IC50 [1] [µM] | further results
CCCCC(=O)O[C@H](CC=C(C)C)C1=CC(=O)c2c(O)ccc(O)c2C1=O | 84.5 | 
CC(C)=CC[C@@H](O)C1=CC(=O)c2c(O)ccc(O)c2C1=O [SHIKONIN] | 138 | 
CC(C)=CC[C@@H](OC(=O)c1ccccc1)C1=CC(=O)c2c(O)ccc(O)c2C1=O | 56.2 | 
CC(C)=CC[C@@H](OC(=O)CC(C)C)C1=CC(=O)c2c(O)ccc(O)c2C1=O |  | IC50 [2]: 13.8 µM; IC50 [3]: 0.6 µM
CCC(=O)O[C@H](CC=C(C)C)C1=CC(=O)c2c(O)ccc(O)c2C1=O | 28.7 | 
CCCC(=O)O[C@H](CC=C(C)C)C1=CC(=O)c2c(O)ccc(O)c2C1=O | 49.6 | 
CC(=O)O[C@H](CC=C(C)C)C1=CC(=O)c2c(O)ccc(O)c2C1=O [ACETYLSHIKONIN] | 112 | 
CC(C)=CC[C@@H](OC(=O)C(C)C)C1=CC(=O)c2c(O)ccc(O)c2C1=O [ISOBUTYLSHIKONIN] | 57.5 | inhibition [4]: 32%
C=CCCC(=O)O[C@H](CC=C(C)C)C1=CC(=O)c2c(O)ccc(O)c2C1=O | 71.4 | 
CC(C)=CC[C@@H](OC(=O)CC(C)(C)O)C1=CC(=O)c2c(O)ccc(O)c2C1=O [BETA-HYDROXYISOVALERYLSHIKONIN] | 170 | 
